In patent US10513534B2, “2′-chloro nucleoside analogs for HCV infection” (priority 2012, dated 2019):

Key:
Type in all cases: cell-based
Zluc cells = assay: Cytotoxicity in Zluc cells (CES1 study)
Protocol: (§1) For cytotoxicity evaluation, cells were treated with compounds as described herein, and cell viability was monitored using the CellTiter-Blue Cell Viability Assay (Promega) by adding 20 μL of the assay solution to each well. The plates were then incubated at 37° C./5% CO2 for at least 3 hours.

HCV genotype 1b replicon [1] = assay: HCV replicon assay in Zluc cells (CES1 study); details: 72 hours
Protocol: (§2) An Huh-7-derived cell line (Zluc) that harbors an HCV genotype 1b replicon and a luciferase reporter gene was grown in Dulbecco's Modified Eagle Medium (DMEM) supplemented with 10% fetal bovine serum, 2 mM GlutaMAX, 1% MEM nonessential amino acids, 100 IU/mL penicillin, 100 μg/mL streptomycin, and 0.5 mg/mL Geneticin® (G418). Zluc cells were transiently transfected with human CES1 (GenBank Accession No. NM_001025194) by employing a lipid/histone based transfection procedure. Expression of CES1 was confirmed by Western blot, 24- and 48-hours after transfection, using anti-CES1 and anti-FLAG® tag antibodies.
For dose response testing the cells were seeded in 96-well plates at 7.5×10^3 cells per well in a volume of […], and incubated at 37° C./5% CO2. Drug solutions were prepared freshly in the culture medium as 2× stocks. Ten additional 5-fold dilutions were prepared from these stocks in DMEM without G418. At least three hours after cells were seeded, drug treatment was initiated by adding 50 μL of drug dilutions to the plates in duplicate. […] The plates were shaken gently for 3 min at room temperature and luminescence was measured on a Victor^3 V 1420 multilabel counter (Perkin Elmer) with a 1 second read time using a 700 nm cut-off filter. The EC50 values were calculated from dose response curves from the resulting best-fit equations determined by Microsoft Excel and XLfit 4.1 software.

HCV genotype 1b replicon [2] = assay: HCV replicon assay in Zluc cells transiently transfected with human CES1; details: for EC50: Zluc cells transiently transfected with human CES1, 72 hours; for Effect of CES1 overexpression on replicon activity: cells overexpressing CES1 versus Zluc; for Fold Activity Increase EC50 (Zluc)/EC50 (Zluc + CES1): ratio of replicon EC50 without and with CES1 overexpression
Protocol: as §2
For dose response testing the cells were seeded in 96-well plates at 7.5×10^3 cells per well in a volume of […], and incubated at 37° C./5% CO2. Drug solutions were prepared freshly in the culture medium as 2× stocks. Ten additional 5-fold dilutions were prepared from these stocks in DMEM without G418. At least three hours after cells were seeded, drug treatment was initiated by adding 50 μL of drug dilutions to the plates in duplicate. Final concentrations of drug ranged from 100 μM to 0.0000512 μM. Cells were then incubated at 37° C./5% CO2. […] For this, media was removed from the plates via gentle tapping. Fifty microliters of ONE-glo luciferase assay reagent was added to each well. The plates were shaken gently for 3 min at room temperature and luminescence was measured on a Victor^3 V 1420 multilabel counter (Perkin Elmer) with a 1 second read time using a 700 nm cut-off filter. The EC50 values were calculated from dose response curves from the resulting best-fit equations determined by Microsoft Excel and XLfit 4.1 software.

Zluc + CES1 cells = assay: Cytotoxicity in Zluc cells transfected with human CES1; details: Zluc cells transiently transfected with human CES1
Protocol: as §2, §1

[3] = Cytotoxicity in Zluc cells (CES1 study); details: human
Protocol: as §1

[4] = Cytotoxicity in Zluc cells transfected with human CES1; details: Zluc cells transiently transfected with human CES1
Protocol: as §2, §1

| Compound | CC50 (Zluc cells) [nM] | EC50 (HCV genotype 1b replicon [1]) [nM] | EC50 (HCV genotype 1b replicon [2]) [nM] | Effect of CES1 overexpression on replicon activity (HCV genotype 1b replicon [2]) | Fold Activity Increase EC50 (Zluc)/EC50 (Zluc + CES1) (HCV genotype 1b replicon [2]) | CC50 (Zluc + CES1 cells) [nM] | CC50 [3] [nM] | EC50 (HCV genotype 1b replicon [1]; Hepatitis C virus) [nM] | EC50 (HCV genotype 1b replicon [2]; Hepatitis C virus) [nM] | CC50 [4] [nM] |
| --- | --- | --- | --- | --- | --- | --- | --- | --- | --- | --- |
| CC(C)(CO)C(=O)SCCOP(=O)(NCc1ccccc1)OC[C@H]1O[C@@H](n2cnc3c(=O)[nH]c(N)nc32)[C@](C)(O)[C@@H]1O (stereo partly drawn) [IDX-184] | > 50000 | < 250 | < 250 | not increased | + (+ ≤ 1) | > 50000 |  |  |  |  |
| CC(C)OC(=O)[C@H](C)N[P@](=O)(OC[C@H]1O[C@@H](n2ccc(=O)[nH]c2=O)[C@](C)(F)[C@@H]1O)Oc1ccccc1 [Sofosbuvir, sofosbuvir] |  |  |  | not increased | + (+ ≤ 1) |  | > 50000 | 250 to 1000 | 250 to 1000 | > 50000 |
